30 compounds from patent publication US20110281854A1, “MORPHOLINE COMPOUNDS” (Pfizer Inc, priority 2010, published 2011) can be followed below.

The target in the first assay is T1, MR (Homo sapiens, UniProt P08235).
T1 construct: expressed in transfected cells; host or cells: Huh7 human liver cells (ATCC), transient transfection with FuGENE 6
T1 sequence (P08235 726-964 limits assumed): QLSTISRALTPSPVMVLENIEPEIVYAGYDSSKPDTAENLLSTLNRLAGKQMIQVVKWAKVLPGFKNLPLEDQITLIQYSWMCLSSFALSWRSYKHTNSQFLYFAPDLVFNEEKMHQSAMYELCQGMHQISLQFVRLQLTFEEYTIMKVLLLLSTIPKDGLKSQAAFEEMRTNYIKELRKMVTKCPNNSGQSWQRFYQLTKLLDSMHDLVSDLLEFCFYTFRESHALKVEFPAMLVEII
As to the kind of experiment: Cell-based reporter assay (Gal4-MR-LBD luciferase, antagonist mode).
Settings: not given
The procedure:
To measure the ability of test compound in the present invention to modulate the activity of MR (agonize, antagonize, partially agonize, partially antagonize), bioassays were performed that measured the modulation of reporter gene expression. Cells were transiently transfected with a luciferase reporter gene under the control of a Gal4 response element (Gal4-RE-luc) and a plasmid containing the Gal4 DNA binding domain fused to the MR ligand binding domain (Gal4-MR-LBD). Agonists can bind to and activate the MR-LBD, which activates the expression of the luciferase reporter gene through interaction with the Gal4 response element. […] Antagonists can compete for binding to the NHR-LBD and decrease the agonist-induced transcriptional activity of the reporter gene. Therefore, measurement of luciferase activity allowed quantitative determinations of the reporter transcription in the presence of either agonists or competitive antagonists.
The final concentration of DMSO in the test plate was 0.5%. Following an overnight incubation with compound, 25 μL of Steady-Glow™ lysis buffer with luciferase substrate (Promega Corporation, E2550) was added directly to the cells. After a 30-minute incubation to completely lyse the cells, the microplates were counted in an Envision™ Multilabel Reader (Perkin Elmer) in single photon counting mode.
In general terms: A reporter such as luciferase makes a cellular process visible.
The compound `CC1(C)OCCN(c2ccc3c(n2)NC(=O)CO3)C1c1ccccc1` (stereo not drawn) [Example 53, 6-(2,2-dimethyl-3-phenylmorpholino)-2H-pyrido[3,2-b][1,4]oxazin-3(4H)-one] displayed a half-inhibitory concentration (IC50) of 7.45 µM.

On to `Cc1c(NS(C)(=O)=O)cccc1N1C[C@@H](C)OC[C@H]1c1ccccc1` [Example 63, N-(2-methyl-3-((2R,5R)-2-methyl-5-phenylmorpholino)phenyl)methanesulfonamide], for which the concentration for half-maximal inhibition (IC50) was determined as 4.27 µM. This IC50 lies about 1.7-fold lower than the previous one.

`C[C@@H]1CN(c2ccc3c(n2)NC(=O)CO3)[C@H](c2ccccc2F)CO1` (single isomer, unassigned) [Example 8]: 0.0334 µM corresponded to half-maximal inhibition (IC50).

Take `C[C@H]1CN(c2cc3c(cn2)OCC(=O)N3)[C@@H](c2cccc(F)c2)CO1` (racemic) [Example 50, (±)-7-(cis-5-(3-fluorophenyl)-2-methylmorpholino)-1H-pyrido[3,4-b][1,4]oxazin-2(3H)-one]: the IC50 came to 0.272 µM.

`C[C@@H]1CN(c2cccc(NS(C)(=O)=O)n2)[C@H](c2ccccc2)CO1` [Example 27, N-(6-((2R,5R)-2-methyl-5-phenylmorpholino)pyridin-2-yl)methanesulfonamide] registered a 50% inhibitory concentration (IC50) of 1.23 µM.

Consider `C[C@@H]1CN(c2ccc3c(c2)NC(=O)CO3)[C@H](c2ccccc2)CO1` [Example 28, 6-((2R,5R)-2-methyl-5-phenylmorpholino)-2H-benzo[b][1,4]oxazin-3(4H)-one], for which the IC50 stood at 0.024 µM.

In the case of `C[C@@H]1CN(c2nc3c(cc2C#N)OCC(=O)N3)[C@H](c2ccccc2)CO1` [Example 60, 6-((2R,5R)-2-methyl-5-phenylmorpholino)-3-oxo-3,4-dihydro-2H-pyrido[3,2-b][1,4]oxazine-7-carbonitrile], the midpoint of inhibition, the IC50, lay at 9.56 µM.

Compound `C[C@@H]1CN(c2ccc3c(n2)NC(=O)CO3)C[C@@H](C)O1` [Example 54, 6-((2R,6R)-2,6-dimethylmorpholino)-2H-pyrido[3,2-b][1,4]oxazin-3(4H)-one] had an IC50 of 2.8 µM.

`C[C@@H]1CN(c2ccc3oc(=O)[nH]c3c2)[C@H](c2ccccc2)CO1` [Example 45, 5-((2R,5R)-2-methyl-5-phenylmorpholino)benzo[d]oxazol-2(3H)-one] showed an IC50 of 0.349 µM.

In turn, `C[C@@H]1CN(c2ccc3c(n2)NC(=O)CO3)CCO1` (single isomer, unassigned) [Example 19] came in with an IC50 of 5.61 µM. This IC50 is about 16-fold higher than that of the compound before.

`C[C@H]1CN(c2ncc3c(n2)NC(=O)CO3)[C@@H](c2ccccc2F)CO1` (racemic) [Example 34, (±)-2-(cis-5-(2-fluorophenyl)-2-methylmorpholino)-6H-pyrimido[5,4-b][1,4]oxazin-7(8H)-one] yielded a 50% inhibitory concentration (IC50) of 0.146 µM.

`CC1(C)CN(c2ccc3c(n2)NC(=O)CO3)[C@H](c2ccccc2)CO1` [Example 13, (R)-6-(2,2-dimethyl-5-phenylmorpholino)-2H-pyrido[3,2-b][1,4]oxazin-3(4H)-one] displayed an IC50 of 0.407 µM.

The compound `CCC1CN(c2ccc3c(n2)NC(=O)CO3)CCO1` (stereo not drawn) [Example 26, 6-(2-ethylmorpholino)-2H-pyrido[3,2-b][1,4]oxazin-3(4H)-one] returned a half-maximal inhibitory concentration (IC50) of 3.37 µM.

`C[C@@H]1CN(c2ncc3c(n2)NC(=O)CO3)[C@H](c2ccc(F)cc2)CO1` [Example 55, 2-((2R,5R)-5-(4-fluorophenyl)-2-methylmorpholino)-6H-pyrimido[5,4-b][1,4]oxazin-7(8H)-one] had a half-maximal inhibitory concentration (IC50) of 0.485 µM. This IC50 is about 6.9-fold lower than that of the compound before.

`O=C1COc2ccc(N3CCOC[C@H]3c3ccccc3)nc2N1` [Example 16, (R)-6-(3-phenylmorpholino)-2H-pyrido[3,2-b][1,4]oxazin-3(4H)-one] displayed an IC50 of 1.97 µM.

For the compound `O=C1COc2ccc(N3CCOC(c4ccccc4)C3c3ccccc3)cc2N1` (stereo not drawn) [Example 75, 6-(2,3-diphenylmorpholino)-2H-benzo[b][1,4]oxazin-3(4H)-one], the IC50 amounted to 3.08 µM. This IC50 is about 1.6-fold higher than that of the compound before.

As to `C[C@@H]1CN(c2ccc3c(n2)NC(=O)CO3)[C@H](C)CO1` [Example 71, 6-((2R,5R)-2,5-dimethylmorpholino)-2H-pyrido[3,2-b][1,4]oxazin-3(4H)-one], it took 1.93 µM to reach half-maximal inhibition (IC50).

`C[C@H]1CN(c2cc3c(cn2)OCC(=O)N3)[C@@H](c2ccccc2F)CO1` (racemic) [Example 32, (±)-7-(cis-5-(2-fluorophenyl)-2-methylmorpholino)-1H-pyrido[3,4-b][1,4]oxazin-2(3H)-one] gave an IC50 of 0.111 µM.

Compound `C[C@@H]1CN(c2ccc3c(n2)NC(=O)CO3)[C@H](c2ccccc2)[C@H](C)O1` [Example 69, 6-((2S,3R,6R)-2,6-dimethyl-3-phenylmorpholino)-2H-pyrido[3,2-b][1,4]oxazin-3(4H)-one] showed an IC50 of 0.204 µM. This IC50 is about 1.8-fold higher than that of the compound before.

`O=C1COc2cnc(N3C[C@@H](C4CC4)OC[C@H]3c3ccccc3)nc2N1` [Example 44, 2-((2R,5R)-2-cyclopropyl-5-phenylmorpholino)-6H-pyrimido[5,4-b][1,4]oxazin-7(8H)-one] gave an IC50 of 1.23 µM. Compared with the last compound, the IC50 is about 6-fold higher.

On to `O=C1COc2ccc(N3CC4(COC4)OC[C@H]3c3ccccc3)nc2N1` [Example 70, (R)-6-(7-phenyl-2,5-dioxa-8-azaspiro[3.5]nonan-8-yl)-2H-pyrido[3,2-b][1,4]oxazin-3(4H)-one], for which half-maximal inhibition (IC50) required 0.628 µM.

Turning to `O=C1COc2ccc(N3C[C@@H](C4CC4)OC[C@H]3c3ccccc3)nc2N1` [Example 31, 6-((2R,5R)-2-cyclopropyl-5-phenylmorpholino)-2H-pyrido[3,2-b][1,4]oxazin-3(4H)-one], half-maximal inhibition (IC50) was put at 0.913 µM.

Consider `O=C1COc2ccc(N3CCO[C@H]4Cc5ccccc5[C@H]43)nc2N1` [Example 20, 6-((4aR,9aS)-2,3,9,9a-tetrahydroindeno[2,1-b][1,4]oxazin-4(4aH)-yl)-2H-pyrido[3,2-b][1,4]oxazin-3(4H)-one], for which the IC50 came to 3 µM.

`Cc1cc(N2CCOC[C@H]2c2ccccc2)cc2c1OCC(=O)N2` (single isomer, unassigned) [Example 22] displayed an IC50 of 0.885 µM.

Turning to `C[C@@H]1CN(c2ccc3ccc(=O)[nH]c3c2)[C@H](c2ccccc2)CO1` [Example 59, 7-((2R,5R)-2-methyl-5-phenylmorpholino)quinolin-2(1H)-one], it took 0.703 µM to reach half-maximal inhibition (IC50). This IC50 and that of the compound before are within 1.5-fold of each other.

Regarding `CC1CN(c2ccc3c(n2)NC(=O)CO3)CCO1` (racemic) [Example 17, 6-(2-methylmorpholino)-2H-pyrido[3,2-b][1,4]oxazin-3(4H)-one], the IC50 came out at 3.05 µM. Compared with the last compound, the IC50 is about 4.3-fold higher.

The compound `O=C1COc2ccc(N3CCOC4(CCCc5ccccc54)C3)cc2N1` (stereo not drawn) [Example 72, 6-(3′,4′-dihydro-2′H-spiro[morpholine-2,1′-naphthalene]-4-yl)-2H-benzo[b][1,4]oxazin-3(4H)-one] gave an IC50 of 8.75 µM.

Turning to `O=C1COc2ccc(N3CCOC[C@@H]3c3ccccc3)cc2N1` [Example 41, (S)-6-(3-phenylmorpholino)-2H-benzo[b][1,4]oxazin-3(4H)-one], the IC50 is 5.23 µM.

In turn, `C[C@@H]1CN(c2ncc3c(n2)NC(=O)CO3)[C@H](c2ccccc2F)CO1` (single isomer, unassigned) [Example 35] yielded a concentration for half-maximal inhibition (IC50) of 0.104 µM.

Still in this assay, the particulars now being: antagonist mode; decrease of EC80 aldosterone signal by 50%; Huh7 cells transfected with Gal4-MR-LBD and Gal4-RE-luc.
Compound “6-((2S,5R)-2-(methoxymethyl)-5-phenylmorpholino)-2H-pyrido[3,2-b][1,4]oxazin-3(4H)-one [Example 49]” showed an IC50 of 0.358 µM.

The IC50 is the midpoint of a concentration-inhibition curve. Read a low IC50 as higher potency.
